Assay results reported in patent US20040006103A1, “Use of chloroquine, hydroxychloroquine and 4 amino-quinolinic derivatives to obtain a drug for the anti retroviral therapy, active towards HIV sensitive strains and towards HIV strains which are resistant to both nucleosidic and non-nucleosidic reverse transcriptase inhibitors and to proteases …” (VALPHARMA S.A., priority 2002, published 2004).
Read-outs that look alike come from different tables or passages of the source.

Columns and labels:
[1] = tested on: HIV clinical isolated, characterised by mutations in the RT gene inducing geno-phenotypic resistance to AZT; experiment: p24 production susceptibility test (ACTG protocol), Table 1; type: cell-based, HIV-1; conditions: for EC50: Human immunodeficiency virus 1, PBMC; for S.I. CQ: I.C.50/E.C.50; for CQ (fold): ratio to HIV-IIIB
Text: (§1) For the phenotype of the nucleosidic, non-nucleosidic and proteases inhibitors was utilised a method which consider the use of human PBMC and the protocol standardised by the AIDS Clinical Trials Group, after verifying the genotype by sequence analysis.
(§2) In order to assay in vitro the susceptibility to chloroquine and hydroxychloroquine of the viral strains, it was used the protocol of the ACTG which is characterised by the measure, of the production of antigen p24 in strongly infected cells.
(§3) The susceptibility of the viral strains to chemotherapics was determined in cell cultures, prepared in 96 wells microplates, using, for the infection, 0.1 MOI.
(§4) The supernatant of the infected cultures (either in absence or in presence of different concentrations of chemotherapic) were tested for the production of p24 after 7 days, using an ELISA test which is commercially available.
(§5) The concentrations of chloroquine and hydroxychloroquine tested ranged from 0.5 to 15 uM. At the same time non-infected cells were incubated with concentrations of chloroquine and hydroxychloroquine ranging from 0 to 50 uM to evaluate the toxicity of the compound.
(§6) After 4 day from the infection, half the cellular medium was replaced with a medium containing the corresponding dilution of chloroquine and hydroxychloroquine. The percentage of inhibition of the HIV replication, induced by chloroquine and hydroxychloroquine, was determined, after 7 day from the infection, comparing the levels of p24 of this cultures and that of the control, infected and not treated with chloroquine and hydroxychloroquine.
(§7) Therefore, the E.C.50 of chloroquine and hydroxychloroquine expresses the concentration of chemotherapic that inhibits the 50% of production of p24 and the values were calculated using linear and non linear regression analysis (the significativity for the non linear regression was R^2>0.95).
(§8) In the same experimental conditions and in the same day, but with similar concentrations of chloroquine and hydroxychloroquine, it was evaluated the vitality of the infect cell cultures, and this was expressed as I.C.50.
(§9) I.C.50 (Inhibitory Concentration) indicates the concentration of the chemotherapic agent inhibiting the vitality of the cell cultures at a rate of 50%, when there is not infection.

[2] = tested on: HIV clinical isolated, characterised by mutations in the RT gene inducing geno-phenotypic resistance to ddI; experiment: p24 production susceptibility test (ACTG protocol), Table 2; type: cell-based, HIV-1; conditions: for EC50: Human immunodeficiency virus 1, PBMC, read-out: E.C.50 CQ; for S.I. CQ / Fen. CQ (fold): PBMC; for S.I. CQ: I.C.50/E.C.50; for Fen. CQ (fold): ratio to HIV-IIIB
Text: as §1, §2, §3, §4, §5, §6, §7, §8, §9

[3] = tested on: HIV-1 strains geno-phenotypically resistant to NVP; experiment: p24 production susceptibility test, Table 6, MT-2 cells; type: cell-based; conditions: for EC50: Human immunodeficiency virus 1, MT2, MT-2, read-out: E.C.50 CQ; for S.I. CQ / Fen. CQ (fold): MT-2; for S.I. CQ: I.C.50/E.C.50; for Fen. CQ (fold): ratio to HIV-IIIB
Text: as §1, §2, §3, §4, §5, §6, §7, §8, §9

[4] = tested on: HIV-1 strains geno-phenotypically resistant to EFV; experiment: p24 production susceptibility test, Table 7, MT-2 cells; type: cell-based; conditions: for EC50: Human immunodeficiency virus 1, MT2, MT-2, read-out: E.C.50 CQ; for S.I. CQ / Fen. CQ (fold): MT-2; for S.I. CQ: I.C.50/E.C.50; for Fen. CQ (fold): ratio to HIV-IIIB
Text: as §1, §2, §3, §4, §5, §6, §7, §8, §9

[5] = tested on: HIV-1 clinical isolated, characterised by mutations in the protease gene inducing geno-phenotypic resistance to IDV; experiment: p24 production susceptibility test (ACTG protocol), Table 9; type: cell-based; conditions: for EC50: Human immunodeficiency virus 1, PBMC; for S.I. CQ: I.C.50/E.C.50; for Fen. CQ (fold): ratio to HIV-IIIB
Text: as §1, §2, §3, §4, §5, §6, §7, §8, §9

[6] = tested on: HIV-1 clinical isolated, characterised by mutations on the protease gene inducing geno-phenotypic resistance to NFV; experiment: p24 production susceptibility test, Table 10, H-9 cells; type: cell-based; conditions: for S.I. CQ / Fen. CQ (fold): H-9; for S.I. CQ: I.C.50/E.C.50; for Fen. CQ (fold): ratio to HIV-IIIB; for EC50: Human immunodeficiency virus 1, H9, H-9, read-out: E.C.50 CQ
Text: as §1, §2, §3, §4, §5, §6, §7, §8, §9

[7] = tested on: viruses resistant to both reverse transcriptase and protease inhibitors; experiment: p24 production susceptibility test, summary for resistant viruses; type: cell-based, HIV-1; conditions: Human immunodeficiency virus 1, range
Procedure: as §2, §3
The supernatant of the infected cultures (either in absence or in presence of different concentrations of chemotherapic) were tested for the production of p24 after 7 days, using an ELISA test which is commercially available. […]
as §6, §7

[8] = PBMC, Gen. D67N K70R T215F K219Q
[9] = PBMC, Gen. D 67 Ns K 70N T215F K219Q
[10] = PBMC, Gen. M41I M184V L210W R221K T215Y
[11] = PBMC, Gen. M41L D67N K70RM 184V T215F
[12] = PBMC, Gen. M41LD 76N K70R T215Y
[13] = Gen M4IL M184V L210W R211KL 214F T215Y
[14] = PBMC, Gen. K20R E35D M36I I54V V82T

CCN(CC)CCCC(C)Nc1ccnc2cc(Cl)ccc12 (stereo not shown) [CQ, chloroquine]
EC50 ([1]; PBMC, Gen. D67N K70R T215F K219Q, read-out: E.C.50 CQ): 2 µM
EC50 ([1]; PBMC, Gen. D 67 Ns K 70N T215F K219Q, read-out: E.C.50 CQ): 3 µM
EC50 ([1]; PBMC, Gen. K70R T215F K219Q, read-out: E.C.50 CQ): 1.8 µM
EC50 ([1]; PBMC, Gen. M41I M184V L210W R221K T215Y, read-out: E.C.50 CQ): 1.5 µM
EC50 ([1]; PBMC, Gen. M41I T215Y, read-out: E.C.50 CQ): 2 µM
EC50 ([1]; PBMC, Gen. M41L D67N K70RM 184V T215F, read-out: E.C.50 CQ): 2.5 µM
EC50 ([1]; read-out: E.C.50 CQ (uM), PBMC, Gen. M41LD 76N K70R T215Y): 3 µM
S.I. CQ [1, 8]: 4
CQ (fold) [1, 8]: 1.1X fold
S.I. CQ [1, 9]: 3
CQ (fold) [1, 9]: 2X fold
S.I. CQ ([1]; PBMC, Gen. K70R T215F K219Q): 5.5
CQ (fold) ([1]; PBMC, Gen. K70R T215F K219Q): 1.1X fold
S.I. CQ [1, 10]: 6
CQ (fold) [1, 10]: 0.8X fold
S.I. CQ ([1]; PBMC, Gen. M41I T215Y): 4
CQ (fold) ([1]; PBMC, Gen. M41I T215Y): 1.1X fold
S.I. CQ [1, 11]: 3.6
CQ (fold) [1, 11]: 1.3X fold
S.I. CQ [1, 12]: 3.2
CQ (fold) [1, 12]: 1.6X fold
EC50 ([2]; Gen D67N K70R M184V T215Y): 2500 nM
EC50 ([2]; Gen D67N K70R T215F K70R): 3000 nM
EC50 ([2]; Gen K70R T215F K219Q): 1800 nM
EC50 [2, 13]: 2000 nM
EC50 ([2]; Gen M41I T215F): 2000 nM
EC50 ([2]; Gen M41L D67N K70R M184V T215Y): 2500 nM
EC50 ([2]; Gen M41L D67N K70R T215Y): 3000 nM
S.I. CQ ([2]; Gen D67N K70R M184V T215Y): 4.5
Fen. CQ (fold) ([2]; Gen D67N K70R M184V T215Y): 1.5X fold
S.I. CQ ([2]; Gen D67N K70R T215F K70R): 3
Fen. CQ (fold) ([2]; Gen D67N K70R T215F K70R): 1.3X fold
S.I. CQ ([2]; Gen K70R T215F K219Q): 5.5
Fen. CQ (fold) ([2]; Gen K70R T215F K219Q): 0.7X fold
S.I. CQ [2, 13]: 4.5
Fen. CQ (fold) [2, 13]: 1.1X fold
S.I. CQ ([2]; Gen M41I T215F): 4
Fen. CQ (fold) ([2]; Gen M41I T215F): 1.1X fold
S.I. CQ ([2]; Gen M41L D67N K70R M184V T215Y): 3.6
Fen. CQ (fold) ([2]; Gen M41L D67N K70R M184V T215Y): 1.3X fold
S.I. CQ ([2]; Gen M41L D67N K70R T215Y): 3.2
Fen. CQ (fold) ([2]; Gen M41L D67N K70R T215Y): 1.2X fold
EC50 ([3]; Gen. G190E): 3500 nM
EC50 ([3]; Gen. K103N): 3200 nM
EC50 ([3]; Gen. V106A): 2800 nM
EC50 ([3]; Gen. Y181C): 3800 nM
S.I. CQ ([3]; Gen. G190E): 6
Fen. CQ (fold) ([3]; Gen. G190E): 1.9X fold
S.I. CQ ([3]; Gen. K103N): 6.2
Fen. CQ (fold) ([3]; Gen. K103N): 1.7X fold
S.I. CQ ([3]; Gen. V106A): 7.8
Fen. CQ (fold) ([3]; Gen. V106A): 1.5X fold
S.I. CQ ([3]; Gen. Y181C): 6
Fen. CQ (fold) ([3]; Gen. Y181C): 2.1X fold
EC50 ([4]; Gen. K101D K103N): 2800 nM
EC50 ([4]; Gen. K103N V108D): 2200 nM
EC50 ([4]; Gen. K103N Y181C): 2500 nM
EC50 ([4]; Gen. K103N): 2200 nM
EC50 ([4]; Gen. L100I K103N): 3200 nM
EC50 ([4]; Gen. Y181C): 1800 nM
S.I. CQ ([4]; Gen. K101D K103N): 7.8
Fen. CQ (fold) ([4]; Gen. K101D K103N): 1.8X fold
S.I. CQ ([4]; Gen. K103N V108D): 6.8
Fen. CQ (fold) ([4]; Gen. K103N V108D): 1.4X fold
S.I. CQ ([4]; Gen. K103N Y181C): 8
Fen. CQ (fold) ([4]; Gen. K103N Y181C): 1.6X fold
S.I. CQ ([4]; Gen. K103N): 8.5
Fen. CQ (fold) ([4]; Gen. K103N): 1.4X fold
S.I. CQ ([4]; Gen. L100I K103N): 6.2
Fen. CQ (fold) ([4]; Gen. L100I K103N): 2.1X fold
S.I. CQ ([4]; Gen. Y181C): 8.5
Fen. CQ (fold) ([4]; Gen. Y181C): 1.2X fold
EC50 ([5]; PBMC, Gen. G48V V82A, read-out: E.C.50 CQ): 2.5 µM
EC50 ([5]; PBMC, Gen. I84V L90M, read-out: E.C.50 CQ): 2.2 µM
EC50 ([5]; PBMC, Gen. K20R E35D M36I I54V V82T, read-out: E.C.50 CQ): 1.8 µM
EC50 ([5]; PBMC, Gen. V82F L90M, read-out: E.C.50 CQ): 2.8 µM
EC50 ([5]; read-out: E.C.50 CQ (uM), PBMC, Gen. L10R M46I L63P V82T): 1.5 µM
S.I. CQ ([5]; PBMC, Gen. G48V V82A): 3.6
Fen. CQ (fold) ([5]; PBMC, Gen. G48V V82A): 1.3X fold
S.I. CQ ([5]; PBMC, Gen. I84V L90M): 4
Fen. CQ (fold) ([5]; PBMC, Gen. I84V L90M): 1.2X fold
S.I. CQ [5, 14]: 5.5
Fen. CQ (fold) [5, 14]: 1X fold
S.I. CQ ([5]; PBMC, Gen. L10R M46I L63P V82T): 5.5
Fen. CQ (fold) ([5]; PBMC, Gen. L10R M46I L63P V82T): 1X fold
S.I. CQ ([5]; PBMC, Gen. V82F L90M): 3.4
Fen. CQ (fold) ([5]; PBMC, Gen. V82F L90M): 1.5X fold
S.I. CQ ([6]; Gen. D30N): 4.2
Fen. CQ (fold) ([6]; Gen. D30N): 1.3X fold
S.I. CQ ([6]; Gen. V82A): 5
Fen. CQ (fold) ([6]; Gen. V82A): 1.5X fold
EC50 ([6]; Gen. D30N): 2500 nM
EC50 ([6]; Gen. V82A): 2700 nM
EC50 [7]: 1500 to 3500 nM
